The structures appear in SMILES notation.

Experiment [1] relates to Antiserum (raised against cyclic GMP-2'-succinyl-BSA). In words: Saturation analysis of cyclic GMP: binding of 8-methylseleno-cyclic GMP-75Se to antiserum and displacement by cyclic GMP. As to conditions: for Percentage of 75Se-labelled cyclic GMP bound: 0.25 picomoles ligand, pH 7.5, 2°-4° C., 3 hours. As for the experimental part:
Standard solutions of cyclic GMP containing 0.25, 0.5, 1.0, 2, 4, 8 and 16,000 picomoles in 100μl of 50mmol tris/4mmol EDTA buffer, pH 7.5, were pipetted into assay tubes maintained at 2°-4° C.; the concentration of 16,000 picomoles/100μl was for determination of `non-specific binding`. 100μl of buffer was also added to a tube for determination of `zero dose` counts. To each tube was added 8-methylseleno-cyclic GMP-^75 Se (0.25 picomoles, specific activity ca 24Ci/mmol) in 50μl of buffer. Antiserum (raised against cyclic GMP-2'-succinyl-BSA) in 50μl of buffer was then added to all tubes. The tubes were briefly vortex mixed and incubated at 2°-4° C. for 3 hours. 1ml of aqueous ammonium sulphate solution (60% saturated) at 2°-4° C. was added to all tubes which, after mixing, were kept at 2°-4° C. for 5 minutes and then centrifuged. After decantation of the supernate and removal of adhering liquid the precipitates were counted in a gamma counter. 0.25 picomoles of 8-methylseleno-cyclic GMP-^75 Se (specific activity ca 24Ci/mmol) in 50μl of buffer was also counted to give `total` counts.
(§1) Results are expressed in terms of […]

The subject of experiment [2] is natural binding protein extracted from bovine muscle. In words: Saturation analysis of cyclic AMP: binding of 75Se-labelled cyclic AMP derivative to binding protein and displacement by cyclic AMP. As to conditions: for Percentage of 75Se-labelled cyclic AMP bound: 3 picomoles ligand, pH 7.5, 2°-4° C., 3 hours; for binding to natural binding protein extracted from bovine muscle / displacement with 3',5'-cyclic AMP from natural binding protein: qualitative. As for the experimental part:
Standard solutions of cyclic AMP containing 1, 2, 4, 8 and 16 picomoles in 50mmol tris/4mmol EDTA buffer, pH 7.5 (50μl) were pipetted into assay tubes maintained at 2°-4° C. Buffer was also added to `total` `blank` and `zero dose` tubes (150, 150 and 50μl respectively),also at 2-4' C. To each tube was added 8-methylseleno-cyclic AMP-^75 Se (3 picomoles; specific activity ca 22Ci/mmol) in 50μl of buffer.
Binding protein (ex bovine muscle) in 100μl of buffer was then added to all tubes except the `blanks`. The tubes were vortex mixed for approximately 5 seconds and then incubated at 2°-4° C. for 3 hours. A suspension of charcoal in water (100μl) was added to all tubes except the `totals` and after vortex mixing for approximately 5 seconds the tubes were immediately centrifuged to sediment the charcoal. A 200μl sample was removed from the supernate of each tube and from the `totals` and counted in a gamma counter.
as §1

In experiment [3] the test system is antibodies raised against these cyclic nucleotides (3',5'-cyclic AMP and 3',5'-cyclic GMP). In words: Binding of selenocysteine conjugates to antibodies raised against the cyclic nucleotides. As to conditions: qualitative.
The test system of a further experiment is binding protein. In words: Competitive inhibition of the binding of tritiated cyclic AMP to the binding protein. On the set-up: species or system bovine. As to conditions: for % 3H-cyclic AMP bound: tritiated cyclic AMP 0.9pmol, zero-dose binding 54.5; for Cyclic AMP equivalent: unlabelled cyclic AMP giving equal reduction in binding. Here is the method: Because of the low activity of the 6-methylselenopurine riboside 3',5'-cyclic monophosphate-^75 Se its binding properties were investigated by using the selenium-75 compound as a competitive inhibitor of the binding of tritiated cyclic AMP to the binding protein.
6-methylselenopurine riboside 3',5'-cyclic monophosphate-^75 Se (specific activity 6.65m Ci/mmol) was made up in tris/EDTA buffer at concentrations of 1,156 pmoles, 105pmoles and 9.6pmoles per 50μl aliquot. In the normal assay 100μl of binding protein is incubated with tritiated cyclic AMP (0.9pmol) and unlabelled cyclic AMP (standards and unknowns). Bound and free labelled cyclic AMP are separated by absorption of free cyclic AMP on charcoal and bound activity is determined by counting a sample of the supernate. To determine the potency of the selenium analogue the zero-dose binding was first determined, ie. the percentage of tritiated cylic AMP bound in the absence of unlabelled cyclic AMP or selenium analogue. This was then compared with the binding of tritiated cylic AMP in the presence of 4 different doses of selenium analogue. From the results obtained it was possible to calculate the amounts of unlabelled cyclic AMP which would give a reduction in binding equal to that caused by the selenium analogue.

Experiment [4] relates to Antiserum (raised against cyclic GMP-2'-succinyl-BSA). Put plainly: Saturation analysis of cyclic GMP: binding of Se-methyl-L-selenocysteine-75Se conjugate of 2'-O-succinyl cyclic GMP to antiserum and displacement by cyclic GMP. The settings on record: 0.59 picomoles ligand, pH 7.5, 2°-4° C., 3 hours. Here is the method: Standard solutions of cyclic GMP containing 5, 10, 20, 40, 80 and 16,000 picomoles in 100μl of 50mmol tris/4mmol EDTA buffer, pH 7.5 were pipetted into assay tubes maintained at 2°-4° C.; the concentration of 16,000 picomoles/100μl was for determination of `non-specific binding`. 100μl of buffer was also added to a tube for determination of `zero dose` counts. To each tube was added Se-methyl-L-selenocysteine-^75 Se conjugate of 2' -O-succinyl cyclic GMP (0.59 picomoles; specific activity ca 16.1Ci/mmol) in 50μl of buffer. Antiserum (raised against cyclic GMP-2'-succinyl-BSA) in 50μl of buffer was then added to all tubes. The tubes were briefly vortex mixed and incubated at 2°-4° C. for 3 hours. 1ml of aqueous ammonium sulphate solution (60% saturated) at 2°-4° C. was added to all tubes which, after mixing, were kept at 2°-4° C. for 5 minutes and then centrifuged.
After decantation of the supernate and removal of adhering liquid the precipitates were counted in a gamma counter. 0.59 picomoles of the Se-methyl-L-selenocysteine-^75 Se conjugate of 2' -O-succinyl cyclic GMP in 50μl of buffer was also counted to give `total` counts.
as §1

For `C[75Se]c1nc2c(=O)[nH]c(N)nc2n1[C@@H]1O[C@@H]2COP(=O)(O)O[C@H]2[C@H]1O` [II, 8-methylselenoguanosine 3',5'-cyclic monophosphate-^75 Se], the “Percentage of 75Se-labelled cyclic GMP bound” value in experiment [1] (dose of cyclic GMP 0 picomoles) stood at 45.3%; in experiment [1] (dose of cyclic GMP 0.25 picomoles), 33.7%; in experiment [1] (dose of cyclic GMP 0.5 picomoles) it was 27.8%; in experiment [1] (dose of cyclic GMP 1.0 picomoles), 22.3%; in experiment [1] (dose of cyclic GMP 2.0 picomoles), 14.0%; in experiment [1] (dose of cyclic GMP 4.0 picomoles), 9.3%. In addition, the “Percentage of 75Se-labelled cyclic GMP bound” value in experiment [1] (dose of cyclic GMP 8.0 picomoles) was 6.5%. For the same compound, the “binding to an antibody raised against cyclic GMP-2'-O-succinyl-BSA” value in experiment [1] (qualitative) is reported as “shown to bind”.

For `C[75Se]c1nc2c(N)ncnc2n1[C@@H]1O[C@@H]2COP(=O)(O)O[C@H]2[C@H]1O` [I, 8-methylselenoadenosine 3', 5'-cyclic monophosphate-^75 Se], the “Percentage of 75Se-labelled cyclic AMP bound” value in experiment [2] (dose of cyclic AMP 0 picomoles) stood at 38.8%; in experiment [2] (dose of cyclic AMP 1 picomole), 29.7%; in experiment [2] (dose of cyclic AMP 2 picomoles), 26.7%; in experiment [2] (dose of cyclic AMP 4 picomoles) it was 21.4%; in experiment [2] (dose of cyclic AMP 8 picomoles), 16.6%; in experiment [2] (dose of cyclic AMP 16 picomoles) it was 10.6%. Besides, the “binding to natural binding protein extracted from bovine muscle” value in experiment [2] is “shown to bind”. The “displacement with 3',5'-cyclic AMP from natural binding protein” value in experiment [2] is listed as “capable of displacement”.

In the case of `C[75Se]C[C@H](NC(=O)CCC(=O)O[C@@H]1[C@@H]2OP(=O)(O)OC[C@H]2O[C@H]1n1cnc2c(N)ncnc21)C(=O)O` [IV], in experiment [3], the “binding to antibodies raised against these cyclic nucleotides” value is on record as “bind strongly”.

Consider `C[75Se]c1ncnc2c1ncn2[C@@H]1O[C@@H]2COP(=O)(O)O[C@H]2[C@H]1O` [III, 6methylselenopurineriboside-3',5'-cyclic monophosphate-^75 Se], for which the “binding to natural binding protein extracted from bovine muscle” value in experiment [2] is reported as “shown to bind”. Also, the “displacement with 3',5'-cyclic AMP from natural binding protein” value in experiment [2] is listed as “capable of displacement”. The “cyclic AMP causing as much displacement of tritiated cyclic AMP” value in the experiment with binding protein (9.6pmoles of Se analogue) came out at 12.2 pmol. Further, the results for the “% 3H-cyclic AMP bound” value with binding protein (Se analogue 9.6 pmoles/50μl), in the experiment on binding protein (Se analogue 105 pmoles/50μl) and with binding protein (Se analogue 1,156 pmoles/50μl) were 5.06%, 0.96% and 0.42%, respectively. In addition, the “Cyclic AMP equivalent” value in the experiment with binding protein (Se analogue 9.6 pmoles/50μl) is 12.2 pmoles/50μl; with binding protein (Se analogue 105 pmoles/50μl), 69.7 pmoles/50μl; in the experiment on binding protein (Se analogue 1,156 pmoles/50μl), 161 pmoles/50μl. The “binding power compared with cyclic AMP” value in the experiment on binding protein (at the concentration employed (9.6pmoles)) is “very similar binding powers”.

As to `C[75Se]C[C@H](NC(=O)CCC(=O)O[C@@H]1[C@@H]2OP(=O)(O)OC[C@H]2O[C@H]1n1cnc2c(=O)[nH]c(N)nc21)C(=O)O` [V], the “binding to antibodies raised against these cyclic nucleotides” value in experiment [3] is on record as “bind strongly”. In addition, the “Percentage of 75Se-labelled cyclic GMP bound” value worked out at 24.5% in experiment [4] (dose of cyclic GMP 0 picomoles); 17.3% in experiment [4] (dose of cyclic GMP 5 picomoles); 16.7% in experiment [4] (dose of cyclic GMP 10 picomoles); 11.8% in experiment [4] (dose of cyclic GMP 20 picomoles); 8.3% in experiment [4] (dose of cyclic GMP 40 picomoles); 6.1% in experiment [4] (dose of cyclic GMP 80 picomoles).
